In general, AC50 refers to the midpoint of the concentration-response curve, whichever way the signal moves. For orientation: EC50 means the midpoint of the concentration-response curve.

Here are results for eleven compounds from ChEMBL document CHEMBL1201862, “PubChem BioAssay data set” (2004).

SMILES strings stand for the structures. Activity calls are given as the source filed them.

Assay [1] addresses T1, Alkaline phosphatase, tissue-nonspecific isozyme (Homo sapiens, UniProt P05186).
T1 sequence (P05186 whole entry): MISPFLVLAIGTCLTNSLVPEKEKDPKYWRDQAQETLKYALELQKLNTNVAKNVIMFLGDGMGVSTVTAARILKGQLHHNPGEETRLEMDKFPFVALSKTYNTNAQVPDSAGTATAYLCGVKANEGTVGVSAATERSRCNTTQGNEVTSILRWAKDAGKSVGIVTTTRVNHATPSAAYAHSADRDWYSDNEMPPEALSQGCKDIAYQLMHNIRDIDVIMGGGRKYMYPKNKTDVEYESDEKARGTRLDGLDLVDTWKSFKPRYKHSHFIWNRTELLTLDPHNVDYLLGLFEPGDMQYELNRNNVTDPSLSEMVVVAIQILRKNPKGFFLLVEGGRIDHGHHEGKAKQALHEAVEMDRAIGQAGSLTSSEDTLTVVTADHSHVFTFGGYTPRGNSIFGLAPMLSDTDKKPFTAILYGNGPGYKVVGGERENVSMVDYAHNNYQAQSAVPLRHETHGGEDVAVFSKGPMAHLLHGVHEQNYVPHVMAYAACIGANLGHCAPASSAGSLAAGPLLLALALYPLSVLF
As to the kind of experiment: TNAP enzyme inhibition by screening hits, dose response, selectivity assay for mouse IAP inhibitor project, biochemical, human TNAP, uHTS hits (AID 488906). It counts as functional.

For assay [2], the target named is Intestinal-type alkaline phosphatase (Mus musculus, UniProt P24822). As to the kind of experiment: PubChem AID 488785. The assay is classed as functional.
Intestinal-type alkaline phosphatase (Mus musculus, UniProt P24822), sequence (P24822 whole entry): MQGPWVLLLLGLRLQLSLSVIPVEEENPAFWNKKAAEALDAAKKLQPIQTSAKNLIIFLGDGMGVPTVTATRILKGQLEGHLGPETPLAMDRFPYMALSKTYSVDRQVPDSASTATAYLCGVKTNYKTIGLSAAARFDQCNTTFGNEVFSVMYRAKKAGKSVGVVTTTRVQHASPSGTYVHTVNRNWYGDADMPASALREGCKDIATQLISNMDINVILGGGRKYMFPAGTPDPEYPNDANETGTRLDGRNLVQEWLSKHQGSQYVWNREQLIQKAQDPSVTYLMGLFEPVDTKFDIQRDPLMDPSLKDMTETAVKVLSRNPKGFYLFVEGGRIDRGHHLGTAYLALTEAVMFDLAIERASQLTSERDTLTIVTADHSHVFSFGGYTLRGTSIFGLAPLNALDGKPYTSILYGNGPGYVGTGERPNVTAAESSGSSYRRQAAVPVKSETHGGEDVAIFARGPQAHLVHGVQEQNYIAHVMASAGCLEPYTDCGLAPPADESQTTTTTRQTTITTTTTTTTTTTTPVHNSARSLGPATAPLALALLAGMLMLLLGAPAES
Assay [3] is described as follows: Luminescence Cell-Based Dose Retest to Confirm Inhibitors of Cancer Stem Cells. [Related pubchem assays (depositor defined):AID2717, AID2721]. It counts as functional. Particulars: Homo sapiens.
For assay [4], the target named is Intestinal-type alkaline phosphatase (Homo sapiens, UniProt P09923). As to the kind of experiment: inhibition of human intestinal alkaline phosphatase – biochemical, dose response (AID 488876). It counts as functional.
Intestinal-type alkaline phosphatase (Homo sapiens, UniProt P09923), sequence (P09923 whole entry): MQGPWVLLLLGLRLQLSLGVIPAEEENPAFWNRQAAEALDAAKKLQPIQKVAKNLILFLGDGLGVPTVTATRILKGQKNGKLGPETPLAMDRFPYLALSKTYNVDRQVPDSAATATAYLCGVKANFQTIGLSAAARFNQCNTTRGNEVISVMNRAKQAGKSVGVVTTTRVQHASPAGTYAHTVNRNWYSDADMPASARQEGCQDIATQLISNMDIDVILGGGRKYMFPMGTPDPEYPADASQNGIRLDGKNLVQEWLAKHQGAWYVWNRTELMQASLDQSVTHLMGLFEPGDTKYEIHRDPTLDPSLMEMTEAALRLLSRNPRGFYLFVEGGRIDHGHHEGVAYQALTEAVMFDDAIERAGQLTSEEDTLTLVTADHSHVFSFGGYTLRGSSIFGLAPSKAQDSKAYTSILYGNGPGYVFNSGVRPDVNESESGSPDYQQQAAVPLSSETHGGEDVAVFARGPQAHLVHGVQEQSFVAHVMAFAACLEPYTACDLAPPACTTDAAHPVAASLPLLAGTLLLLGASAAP
For assay [5], the target named is T2, Voltage-gated N-type calcium channel alpha-1B subunit/Amyloid beta A4 precursor protein-binding family A member 1 (Homo sapiens, UniProt Q00975+Q02410). It counts as protein assay.
T2 sequence (Q00975 whole entry): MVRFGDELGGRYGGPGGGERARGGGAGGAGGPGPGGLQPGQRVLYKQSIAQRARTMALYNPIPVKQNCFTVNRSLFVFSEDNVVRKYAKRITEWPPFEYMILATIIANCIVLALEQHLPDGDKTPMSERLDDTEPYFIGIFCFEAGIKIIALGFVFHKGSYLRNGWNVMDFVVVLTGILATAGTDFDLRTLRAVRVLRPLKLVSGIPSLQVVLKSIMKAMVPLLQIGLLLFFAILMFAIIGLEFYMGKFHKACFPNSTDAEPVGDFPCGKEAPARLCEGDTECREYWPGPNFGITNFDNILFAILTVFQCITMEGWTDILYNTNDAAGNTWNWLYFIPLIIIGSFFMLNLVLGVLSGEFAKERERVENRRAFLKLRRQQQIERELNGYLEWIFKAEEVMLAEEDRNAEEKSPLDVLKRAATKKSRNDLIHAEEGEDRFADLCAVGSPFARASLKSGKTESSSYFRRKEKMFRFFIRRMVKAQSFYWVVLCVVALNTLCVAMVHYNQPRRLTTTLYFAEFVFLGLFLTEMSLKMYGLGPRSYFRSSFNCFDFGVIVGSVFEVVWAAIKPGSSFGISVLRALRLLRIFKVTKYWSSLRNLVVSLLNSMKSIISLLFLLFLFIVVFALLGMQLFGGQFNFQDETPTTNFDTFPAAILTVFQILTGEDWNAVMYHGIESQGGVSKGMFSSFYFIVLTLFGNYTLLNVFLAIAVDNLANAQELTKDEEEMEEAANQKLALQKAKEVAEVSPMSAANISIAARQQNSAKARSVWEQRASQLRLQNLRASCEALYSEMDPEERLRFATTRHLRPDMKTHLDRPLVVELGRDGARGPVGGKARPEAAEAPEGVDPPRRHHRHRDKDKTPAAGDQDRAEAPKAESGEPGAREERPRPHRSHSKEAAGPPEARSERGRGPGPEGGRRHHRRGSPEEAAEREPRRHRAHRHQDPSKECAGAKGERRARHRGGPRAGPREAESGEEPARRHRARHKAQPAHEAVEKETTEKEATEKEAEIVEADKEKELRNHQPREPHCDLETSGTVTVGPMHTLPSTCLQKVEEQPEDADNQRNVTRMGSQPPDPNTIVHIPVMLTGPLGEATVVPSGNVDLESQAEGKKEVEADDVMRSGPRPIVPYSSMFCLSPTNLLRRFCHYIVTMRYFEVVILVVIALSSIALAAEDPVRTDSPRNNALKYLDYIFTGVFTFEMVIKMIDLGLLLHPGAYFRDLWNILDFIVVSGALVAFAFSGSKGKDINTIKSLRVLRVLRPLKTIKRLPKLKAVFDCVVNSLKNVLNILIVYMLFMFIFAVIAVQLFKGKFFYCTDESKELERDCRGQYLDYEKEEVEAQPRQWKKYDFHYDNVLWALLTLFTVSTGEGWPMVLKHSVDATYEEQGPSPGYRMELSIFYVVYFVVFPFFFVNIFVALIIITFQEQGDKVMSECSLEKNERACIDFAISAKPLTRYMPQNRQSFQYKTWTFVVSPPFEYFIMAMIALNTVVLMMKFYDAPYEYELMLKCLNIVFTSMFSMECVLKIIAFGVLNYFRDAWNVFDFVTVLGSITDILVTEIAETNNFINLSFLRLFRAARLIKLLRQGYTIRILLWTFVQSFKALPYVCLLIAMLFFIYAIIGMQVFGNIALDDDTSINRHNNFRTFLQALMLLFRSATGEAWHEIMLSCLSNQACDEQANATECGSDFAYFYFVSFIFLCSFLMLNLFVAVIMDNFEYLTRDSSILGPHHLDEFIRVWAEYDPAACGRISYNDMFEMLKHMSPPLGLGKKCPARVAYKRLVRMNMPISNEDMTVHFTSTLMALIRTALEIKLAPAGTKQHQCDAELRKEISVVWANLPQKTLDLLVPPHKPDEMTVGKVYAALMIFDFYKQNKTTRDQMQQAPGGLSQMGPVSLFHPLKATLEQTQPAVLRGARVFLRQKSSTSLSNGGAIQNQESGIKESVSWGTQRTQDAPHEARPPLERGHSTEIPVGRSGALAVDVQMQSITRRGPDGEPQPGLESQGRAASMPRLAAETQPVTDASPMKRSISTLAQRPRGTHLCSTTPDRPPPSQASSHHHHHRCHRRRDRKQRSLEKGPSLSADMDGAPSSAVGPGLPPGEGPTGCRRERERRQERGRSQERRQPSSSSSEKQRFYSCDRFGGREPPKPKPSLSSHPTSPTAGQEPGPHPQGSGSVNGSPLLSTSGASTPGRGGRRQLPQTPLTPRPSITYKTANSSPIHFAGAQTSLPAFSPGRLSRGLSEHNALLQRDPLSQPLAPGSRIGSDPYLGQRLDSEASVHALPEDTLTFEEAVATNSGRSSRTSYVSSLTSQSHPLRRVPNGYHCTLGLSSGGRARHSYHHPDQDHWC
T2 sequence (Q02410 whole entry): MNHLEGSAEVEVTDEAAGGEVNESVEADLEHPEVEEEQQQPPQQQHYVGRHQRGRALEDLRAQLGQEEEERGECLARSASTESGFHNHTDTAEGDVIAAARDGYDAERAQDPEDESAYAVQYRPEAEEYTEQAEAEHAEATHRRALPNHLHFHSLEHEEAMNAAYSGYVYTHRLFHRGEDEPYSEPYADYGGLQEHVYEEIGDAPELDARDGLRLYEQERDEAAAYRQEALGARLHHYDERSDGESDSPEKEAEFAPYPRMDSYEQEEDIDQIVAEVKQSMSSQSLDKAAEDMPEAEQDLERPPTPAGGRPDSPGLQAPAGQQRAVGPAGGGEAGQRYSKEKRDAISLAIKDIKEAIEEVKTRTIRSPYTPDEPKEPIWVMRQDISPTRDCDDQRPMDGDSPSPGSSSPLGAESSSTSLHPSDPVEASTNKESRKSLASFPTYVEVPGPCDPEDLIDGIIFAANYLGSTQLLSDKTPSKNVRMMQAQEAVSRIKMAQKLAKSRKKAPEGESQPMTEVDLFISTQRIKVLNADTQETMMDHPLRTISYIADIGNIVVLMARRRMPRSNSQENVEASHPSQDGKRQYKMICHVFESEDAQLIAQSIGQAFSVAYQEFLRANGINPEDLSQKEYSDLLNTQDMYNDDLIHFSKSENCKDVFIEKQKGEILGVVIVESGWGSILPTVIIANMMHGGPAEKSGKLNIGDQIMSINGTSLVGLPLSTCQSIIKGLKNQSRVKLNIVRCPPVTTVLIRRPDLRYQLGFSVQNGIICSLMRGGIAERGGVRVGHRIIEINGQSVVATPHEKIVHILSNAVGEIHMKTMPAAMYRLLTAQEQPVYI
Assay [6] deals with T2, Voltage-gated N-type calcium channel alpha-1B subunit/Amyloid beta A4 precursor protein-binding family A member 1. It counts as protein assay. This is another data set of the same source.
A further assay has as its target Large T antigen (Simian virus 40, UniProt P03070). It counts as functional, Betapolyomavirus macacae.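 Further: Confirmatory-stage PubChem screen for compounds that inhibit SV40 T antigen.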
Assay [7] has as its target DNA damage-inducible transcript 3 protein (Mus musculus, UniProt P35639). The assay is classed as functional, Cricetulus griseus.
The target in assay [8] is DNA dC->dU-editing enzyme APOBEC-3A (Homo sapiens, UniProt P31941). The assay can be described thus: Dose Response confirmation of small molecule APOBEC3A DNA Deaminase Inhibitors via a fluorescence-based single-stranded DNA deaminase assay. [Related pubchem assays (depositor defined):AID493011, AID493024]. It counts as functional.
Assay [9] has as its target DNA dC->dU-editing enzyme APOBEC-3G (Homo sapiens, UniProt Q9HC16). It counts as functional.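 Further: Dose-response counterscreen measuring inhibition of APOBEC3G DNA deaminase activity, run while confirming APOBEC3A inhibitors.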
Assay [10] in a line: growth suppression of beta-catenin-knockout colon cells, dose response, cell-based, HCT116, human colon tumor (AID 1045).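 Further: HCT116 colon tumor cells with beta catenin knocked out; cells exposed to compound for 60 hours.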 The assay is classed as functional.
Assay [11] addresses G-protein coupled receptor 55 (Homo sapiens, UniProt Q9Y2T6). The assay can be described thus: GPR55 antagonists blocking LPI-driven arrestin recruitment, primary screen, imaging, U2OS, beta-arrestin-GFP, LPI agonist (AID 2013).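 Further: antagonist potency measured as reduced agonist-driven arrestin aggregation.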 It counts as functional. (In general: Recruitment of arrestin is a read-out of receptor activation apart from second messengers.)
A short description of assay [12]: growth suppression of PTEN-null colon cells, dose response, cell-based, HCT116 PTEN knockout (AID 1047).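 Further: HCT116 colon tumor cells with PTEN knocked out; cells exposed to compound for 60 hours before readout; potency for loss of cell viability measured by luminescence.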 It counts as functional.
Another assay addresses Beta-galactosidase (Escherichia coli, UniProt Q8VNN2). As to the kind of experiment: Dose response counterscreen for EBI2 assay utilizing the enzyme, b-galactosidase. The assay is classed as functional.
The target of assay [13] is FAD-linked sulfhydryl oxidase ALR (Homo sapiens, UniProt P55789). The assay can be described thus: inhibitors of human ALR sulfhydryl oxidase, dose response, biochemical, H2O2 detection, luminescence, cherry-pick (AID 493248).
FAD-linked sulfhydryl oxidase ALR, sequence (P55789 whole entry): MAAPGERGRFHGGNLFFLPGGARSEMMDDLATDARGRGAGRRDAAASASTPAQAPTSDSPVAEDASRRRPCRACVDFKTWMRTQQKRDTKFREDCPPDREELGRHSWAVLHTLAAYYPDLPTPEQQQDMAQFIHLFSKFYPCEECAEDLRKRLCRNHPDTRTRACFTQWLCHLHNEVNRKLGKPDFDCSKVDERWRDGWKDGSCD
The target in a further assay is Genome polyprotein (dengue virus type 2, UniProt P29990). As to the kind of experiment: Dengue-2 NS5 methyltransferase inhibitors, primary screen, biochemical, confirmation dose response (AID 588689). It counts as functional.
Assay [14] concerns the target T3, Polyadenylate-binding protein 1 (Homo sapiens, UniProt P11940). The assay can be described thus: PABP1 MLLE–PAM2 interaction inhibitors, dose response, miRNA deadenylation inhibitor project, biochemical, fluorescence polarization, Cy5-PAM2 peptide, secondary (AID 602260). It counts as functional. The settings on record: read-out: IC50_Mean. (In general: Polarisation of emitted light reports the rotation of a fluorescent probe.)

The target in assay [15] is T4, Rac GTPase-activating protein 1 (Homo sapiens, UniProt Q9H0H5).
T4 sequence (Q9H0H5 whole entry): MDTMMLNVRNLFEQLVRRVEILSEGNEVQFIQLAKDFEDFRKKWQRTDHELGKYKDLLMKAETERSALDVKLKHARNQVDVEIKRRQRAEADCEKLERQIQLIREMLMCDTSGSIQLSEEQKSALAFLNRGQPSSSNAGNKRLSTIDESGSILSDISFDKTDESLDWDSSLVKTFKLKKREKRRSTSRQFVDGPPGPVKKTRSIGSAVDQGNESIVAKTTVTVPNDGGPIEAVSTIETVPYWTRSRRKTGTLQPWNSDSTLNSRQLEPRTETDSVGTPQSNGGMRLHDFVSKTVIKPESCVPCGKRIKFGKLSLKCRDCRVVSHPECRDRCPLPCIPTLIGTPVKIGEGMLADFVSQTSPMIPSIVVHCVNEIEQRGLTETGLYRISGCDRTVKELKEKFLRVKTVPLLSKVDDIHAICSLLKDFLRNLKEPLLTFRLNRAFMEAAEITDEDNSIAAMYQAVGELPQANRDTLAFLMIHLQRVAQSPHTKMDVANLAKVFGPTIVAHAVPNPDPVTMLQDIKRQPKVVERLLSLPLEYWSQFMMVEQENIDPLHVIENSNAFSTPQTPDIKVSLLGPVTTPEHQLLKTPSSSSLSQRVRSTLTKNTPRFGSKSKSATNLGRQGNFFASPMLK
As to the kind of experiment: MgcRacGAP GTPase-activating activity inhibitors, confirmation, biochemical, ADP Hunter fluorescence, primary and confirmatory (AID 624330). The assay is classed as functional.

For assay [16], the target named is T3, Polyadenylate-binding protein 1. The assay can be described thus: PABP1 MLLE–PAM2 binding inhibitor potency, dose response, biochemical, fluorescence polarization, FITC-PAM2 peptide (AID 602259). The settings on record: read-out: IC50_Mean. The assay is classed as functional.
Assay [17] in a line: Luminescence Cell-Based Dose Response HTS to Identify Inhibitors of 5'UTR Stem-Loop Driven Prion Protein mRNA Translation in H4 Neuroglioblastoma Cells. [Related pubchem assays: 1827 (Project Summary), 1813 (Primary HTS)]. The assay is classed as functional.
A short description of assay [18]: inhibitors of SNCA 5'UTR-driven reporter translation, confirmation, H4 neuroglioma cells, luminescence (AID 1988). The assay is classed as functional, cell-based.
Assay [19] is described as follows: inhibitors of firefly luciferase expression or activity, dose response, H4 neuroglioma cells, luminescence (AID 1990). The assay is classed as functional, cell-based.
The next assay concerns the target T5, Bcl-2-related protein A1 (Mus musculus, UniProt Q07440).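 Further: confirmatory dose–response counterscreen on Bfl-1, used to check hits from a UBC13 polyubiquitin inhibitor campaign.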
T5 sequence (Q07440 whole entry): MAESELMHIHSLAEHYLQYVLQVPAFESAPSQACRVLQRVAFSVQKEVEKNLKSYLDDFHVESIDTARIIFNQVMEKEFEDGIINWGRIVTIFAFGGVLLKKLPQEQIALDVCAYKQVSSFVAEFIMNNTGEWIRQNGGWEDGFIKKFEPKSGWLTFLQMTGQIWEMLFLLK
It counts as functional.

Assay [20] has as its target T6, Ubiquitin-conjugating enzyme E2 N (Homo sapiens, UniProt P61088).
T6 sequence (P61088 whole entry): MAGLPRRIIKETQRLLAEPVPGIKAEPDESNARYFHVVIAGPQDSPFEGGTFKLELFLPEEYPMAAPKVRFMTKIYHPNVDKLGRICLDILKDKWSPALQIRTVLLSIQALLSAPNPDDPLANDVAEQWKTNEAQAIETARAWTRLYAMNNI
The assay is classed as functional.

Assay [21] is described as follows: cytotoxicity toward NIH3T3 fibroblasts, dose response, counter-screen, cell-based, ATP luminescence, mouse fibroblasts (AID 2010).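 Further: cells exposed to compound for about 90 hours before reading.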 It counts as functional.
Assay [22] has as its target T6, Ubiquitin-conjugating enzyme E2 N. It counts as functional. The source holds these as a separate data set.
The nature of assay [23]: inhibitors of intracellular T. cruzi replication, confirmation, NIH3T3 host cells, beta-gal luminescence (AID 2044).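 Further: intracellular parasites grown in NIH/3T3 mouse fibroblasts as host cells; luminescent beta-galactosidase reporter signal from transgenic T. cruzi replicating inside host cells; inhibitors lower the luminescence signal.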 The assay is classed as functional, cell-based.
Another assay deals with Troponin, cardiac muscle (Homo sapiens, UniProt P19429+P45379+P63316). As to the kind of experiment: Fluorescence-based biochemical high throughput dose response assay for activators of the calcium sensitivity of cardiac Regulated Thin Filaments (RTF). [Related pubchem assays (depositor defined):AID493008, AID493018, AID504382, AID504383]. It counts as protein-complex assay.

G-protein coupled receptor 55, sequence (Q9Y2T6 whole entry): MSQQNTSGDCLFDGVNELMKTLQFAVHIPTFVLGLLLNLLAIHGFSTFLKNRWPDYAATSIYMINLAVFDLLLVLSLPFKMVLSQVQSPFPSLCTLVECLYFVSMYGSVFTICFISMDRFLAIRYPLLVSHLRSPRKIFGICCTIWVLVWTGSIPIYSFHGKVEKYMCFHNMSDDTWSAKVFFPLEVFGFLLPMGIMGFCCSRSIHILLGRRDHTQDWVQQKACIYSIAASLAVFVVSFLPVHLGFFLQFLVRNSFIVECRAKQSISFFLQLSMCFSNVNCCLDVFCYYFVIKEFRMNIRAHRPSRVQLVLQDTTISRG
DNA damage-inducible transcript 3 protein, sequence (P35639 whole entry): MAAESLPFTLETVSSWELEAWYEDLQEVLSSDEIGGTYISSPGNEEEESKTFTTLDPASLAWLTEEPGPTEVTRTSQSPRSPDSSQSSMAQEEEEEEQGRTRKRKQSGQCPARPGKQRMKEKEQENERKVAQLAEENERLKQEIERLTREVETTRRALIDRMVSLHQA

For the compound `C#CCOCCOCCOCCNc1nc(N2CCN(C(=O)CCCCCCCCCCNC(=O)Cn3cc(C[C@@H](C)O)nn3)CC2)nc(N2CCN(C(=O)CCCCCCCCCCNC(=O)[C@H](CCCCN)n3cc(C[C@@H](C)CC)nn3)CC2)n1`, the values for the IC50 in assay [1], in assay [2] and in assay [4] were 95.5 µM (active), 4.71 µM (active) and > 100 µM (inactive), respectively. In addition, the AC50 in [3] was 7.11 µM (active).
For `C#CCOCCOCCOCCNc1nc(N2CCN(C(=O)CCCCCCCCCCNC(=O)Cn3cc(C[C@@H](C)O)nn3)CC2)nc(N2CCN(C(=O)CCCCCCCCCCNC(=O)[C@@H](CCSC)n3cc(CCO)nn3)CC2)n1`, the IC50 in assay [1] was 27.3 µM (active); in assay [2] it was 27.6 µM (active); in assay [4] it was 36.3 µM (active).
With `CC1=C(C)C[S+]([O-])N(S(=O)(=O)c2ccccc2)C1` (stereo unspecified), the IC50 in assay [5] is > 50 µM (inactive); in [6], 41.7 µM (active); on Large T antigen, 19 µM (active).
With `CCOC(=O)c1sc(NN=C2C(=O)NC(=O)NC2=O)c(C(=O)OCC)c1C`, the “Absolute IC50 (CHOP)” value in [7] amounted to 10 µM.
On to `O=C1NC(=O)N(CCc2ccc(F)cc2)C(=O)/C1=C/c1ccco1`, for which the IC50 in assay [8] was 15 µM (active); in assay [5] it was > 50 µM (inactive); in assay [6] it was 14.8 µM (active); in [9], 20.5 µM (active); on Large T antigen, 12.3 µM (active).
Consider `C=CCNC(=O)/C(C#N)=C/c1ccc(OS(=O)(=O)c2ccc(C)cc2)c(OC)c1`, for which the EC50 in assay [10] was 26.6 µM (active); in [12] it was 28.1 µM (active). The IC50 in assay [11] is 1.93 µM (active); on Beta-galactosidase, > 80 µM (inactive).
Regarding `Cc1cc(O)c(Sc2nc[nH]n2)cc1NS(=O)(=O)c1ccc(Cl)cc1`, the IC50 in assay [1] is 92.6 µM (active); in assay [2], 5.84 µM (active); in assay [4], > 100 µM (inactive). For the same compound, the AC50 in assay [13] was 1.52 µM (active).
For `O=C(O)CCn1cc(C=C2C(=O)NC(=S)NC2=O)c(-c2ccccc2)n1`, the IC50 at Genome polyprotein is 7.65 µM (active); in assay [14], > 66 µM (inactive); in assay [5], 19.8 µM (active); in assay [6] it was 13.1 µM (active); in assay [15], 86.5 µM (active); in [16], > 66 µM (inactive).
For the compound `COc1ccc(C2c3ccc(O)cc3Oc3ncn4nc(-c5cccnc5)nc4c32)cc1OC` (stereo unspecified), the EC50 in [17] is 52.3 µM (active); in assay [18], > 120 µM (not active); in [19], > 120 µM (not active). In assay [11], the IC50 is 1.99 µM (active).
For `COc1cc2nc(N(CCCN(C)C)C(=O)c3ccc(S(=O)(=O)N4CCc5ccccc5C4)cc3)sc2cc1OC`, the IC50 at Bcl-2-related protein A1 was > 20 µM (inactive); in assay [20], 8.3 µM (active); in assay [22], 8.69 µM (active). Besides, the values for the 50% effective concentration (EC50) (in the assay “cells”; in assay [21]; in assay [23]) were 0.569 µM (active), > 60 µM (not active) and < 0.1 µM (active), respectively.
In the case of `O=C(CSc1nnc(COc2ccccc2)o1)N1CCN(c2ccccc2)CC1`, the EC50 at Troponin, cardiac muscle is > 71.5 µM (inactive).
